Source: patent US20240158446A1, “CYCLIC COMPOUND HAVING SELECTIVE INHIBITORY ACTION ON KRAS OVER HRAS AND NRAS” (CHUGAI SEIYAKU KABUSHIKI KAISHA, priority 2021, published 2024)

Columns and labels:
[1] = biological target: GDP-bound KRAS wild-type protein (Homo sapiens, UniProt P01116); assay: Binding to KRAS by surface plasmon resonance (SPR), Single Cycle Kinetics; details: SPR, Single Cycle Kinetics, GDP-bound KRAS wild-type protein; read-out: KRAS KD
[2] = biological target: GDP-bound NRAS wild-type protein (Homo sapiens, UniProt P01111); assay: Binding to NRAS by surface plasmon resonance (SPR), Single Cycle Kinetics; details: ratio of KD for GDP-bound NRAS wild-type protein to KD for KRAS, SPR
[3] = biological target: GDP-bound HRAS wild-type protein (Homo sapiens, UniProt P01112); assay: Binding to HRAS by surface plasmon resonance (SPR), Single Cycle Kinetics; details: ratio of KD for GDP-bound HRAS wild-type protein to KD for KRAS, SPR
[4] = tested on: human lung cancer strain NCI-H441; assay: cells; details: NCI-H441, 96 h, read-out: NCI-H441 IC50 (nM), NCI-H441 cell proliferation, 4 days, CellTiter-Glo;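 note: cell proliferation inhibition after four days measured by CellTiter-Glo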

Chain of GDP-bound KRAS wild-type protein (P01116 whole entry): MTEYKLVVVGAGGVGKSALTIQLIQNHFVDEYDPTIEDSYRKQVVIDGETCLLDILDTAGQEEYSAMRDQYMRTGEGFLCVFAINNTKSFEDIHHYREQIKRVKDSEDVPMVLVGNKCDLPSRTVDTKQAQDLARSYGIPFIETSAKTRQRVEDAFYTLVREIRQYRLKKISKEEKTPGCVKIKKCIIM
Chain of GDP-bound NRAS wild-type protein (P01111 whole entry): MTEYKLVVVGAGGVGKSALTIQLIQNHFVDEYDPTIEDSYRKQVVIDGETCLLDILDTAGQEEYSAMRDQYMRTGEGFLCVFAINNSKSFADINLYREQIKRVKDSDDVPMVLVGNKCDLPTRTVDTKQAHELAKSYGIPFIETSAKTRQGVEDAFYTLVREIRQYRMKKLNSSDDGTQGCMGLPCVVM
Chain of GDP-bound HRAS wild-type protein (P01112 whole entry): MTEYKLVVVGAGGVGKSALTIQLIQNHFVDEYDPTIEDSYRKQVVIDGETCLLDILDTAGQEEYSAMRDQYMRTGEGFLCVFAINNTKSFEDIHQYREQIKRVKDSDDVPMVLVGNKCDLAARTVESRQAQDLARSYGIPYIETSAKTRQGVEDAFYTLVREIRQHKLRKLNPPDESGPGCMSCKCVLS

Compound	Kd [1] [nM]	NRAS/KRAS (KD ratio) [2]	HRAS/KRAS (KD ratio) [3]	IC50 [4] [nM]
CC[C@H](C)[C@@H]1NC(=O)[C@H](CC)N(C)C(=O)C[C@@H](C(=O)N(C)C)N(C)C(=O)[C@H](C2CCCC2)N(C)C(=O)C2(CCC2)N(C)C(=O)[C@@H]2CCCN2C(=O)[C@H](CCc2cc(F)c(C(F)(F)F)c(F)c2)NC(=O)CN(C)C(=O)[C@H](Cc2ccc(C(F)(F)F)cc2)N2CC/C=C\C[C@@H](C2=O)N(C)C(=O)CN(C)C1=O [PP1780]	0.065	A (a compound having 10 or more and less than 20 is denoted as A)	A (a compound having 10 or more and less than 20 is denoted as A)	8.2
CCO[C@@H]1C[C@H]2C(=O)N(C)C3(CCC3)C(=O)N(C)[C@@H](C3CCCC3)C(=O)N(C)[C@H](C(=O)N(C)C)CC(=O)N(C)[C@@H](CC)C(=O)N[C@@H]([C@@H](C)CC)C(=O)N(C)CC(=O)N(C)[C@H]3C/C=C\CCN(C3=O)[C@@H](Cc3ccc(C)cc3)C(=O)N(C)CC(=O)N[C@@H](CCc3cc(F)c(C(F)(F)F)c(F)c3)C(=O)N2C1 [PP1781]	0.024	A (a compound having 10 or more and less than 20 is denoted as A)	B (a compound having 3 or more and less than 10 is denoted as B)	2.1
CCO[C@@H]1C[C@H]2C(=O)N(C)C3(CCC3)C(=O)N(C)[C@@H](C3CCCC3)C(=O)N(C)[C@H](C(=O)N(C)C)CC(=O)N(C)[C@@H](C3CC3)C(=O)N[C@@H]([C@@H](C)CC)C(=O)N(C)CC(=O)N(C)[C@H]3C/C=C\CCN(C3=O)[C@@H](Cc3ccc(C)cc3)C(=O)N(C)CC(=O)N[C@@H](CCc3cc(F)c(C(F)(F)F)c(F)c3)C(=O)N2C1 [PP1783]	0.028	A (a compound having 10 or more and less than 20 is denoted as A)	B (a compound having 3 or more and less than 10 is denoted as B)	3.5
CC[C@H](C)[C@@H]1NC(=O)[C@H](C2CC2)N(C)C(=O)C[C@@H](C(=O)N(C)C)N(C)C(=O)[C@H](C2CCCC2)N(C)C(=O)C2(CCC2)N(C)C(=O)[C@@H]2CCCN2C(=O)[C@H](CCc2cc(F)c(C(F)(F)F)c(F)c2)NC(=O)CN(C)C(=O)[C@H](Cc2ccc(C)cc2)N2CC/C=C\C[C@@H](C2=O)N(C)C(=O)CN(C)C1=O [PP1784]	0.083	A (a compound having 10 or more and less than 20 is denoted as A)	B (a compound having 3 or more and less than 10 is denoted as B)	7.8
CCO[C@@H]1C[C@H]2C(=O)N(C)C3(CCC3)C(=O)N(C)[C@@H](C3CCCC3)C(=O)N(C)[C@H](C(=O)N(C)C)CC(=O)N(C)[C@@H](CC)C(=O)N[C@@H]([C@@H](C)CC)C(=O)N3CCC[C@H]3C(=O)N(C)[C@H]3C/C=C\CCN(C3=O)[C@@H](Cc3ccc(C)cc3)C(=O)N(C)CC(=O)N[C@@H](CCc3cc(F)c(C(F)(F)F)c(F)c3)C(=O)N2C1 [PP1785]	0.051	A (a compound having 10 or more and less than 20 is denoted as A)	A (a compound having 10 or more and less than 20 is denoted as A)	6.9
CC[C@H](C)[C@@H]1NC(=O)[C@H](CC)N(C)C(=O)C[C@@H](C(=O)N(C)C)N(C)C(=O)[C@H](C2CCCC2)N(C)C(=O)C2(CCC2)N(C)C(=O)[C@@H]2CCCN2C(=O)[C@H](CCc2cc(F)c(C(F)(F)F)c(F)c2)NC(=O)CN(C)C(=O)[C@H](Cc2ccc(C)cc2)N2CC/C=C\C[C@@H](C2=O)N(C)C(=O)[C@@H]2CCCN2C1=O [PP1786]	0.14	A (a compound having 10 or more and less than 20 is denoted as A)	B (a compound having 3 or more and less than 10 is denoted as B)	11.4
CC[C@H](C)[C@@H]1NC(=O)[C@H](CC)N(C)C(=O)C[C@@H](C(=O)N(C)C)N(C)C(=O)[C@H](C2CCCC2)N(C)C(=O)C2(CCC2)N(C)C(=O)[C@@H]2C[C@@H](C)CN2C(=O)[C@H](CCc2cc(F)c(C(F)(F)F)c(F)c2)NC(=O)CN(C)C(=O)[C@H](Cc2ccc(C)cc2)N2CC/C=C\C[C@@H](C2=O)N(C)C(=O)[C@@H]2CCCN2C1=O [PP1789]	0.13	A (a compound having 10 or more and less than 20 is denoted as A)	A (a compound having 10 or more and less than 20 is denoted as A)	9.5
CCO[C@@H]1C[C@H]2C(=O)N(C)C3(CCC3)C(=O)N(C)[C@@H](C3CCCC3)C(=O)N(C)[C@H](C(=O)N(C)C)CC(=O)N(C)[C@@H](CC(C)C)C(=O)N[C@@H]([C@@H](C)CC)C(=O)N(C)CC(=O)N(C)[C@H]3C/C=C\CCN(C3=O)[C@@H](Cc3ccc(C)cc3)C(=O)N(C)CC(=O)N[C@@H](CCc3cc(F)c(C(F)(F)F)c(F)c3)C(=O)N2C1 [PP1790]	0.03	A (a compound having 10 or more and less than 20 is denoted as A)	B (a compound having 3 or more and less than 10 is denoted as B)	1.7
CCC[C@H]1C(=O)N[C@@H]([C@@H](C)CC)C(=O)N(C)CC(=O)N(C)[C@H]2C/C=C\CCN(C2=O)[C@@H](Cc2ccc(C)cc2)C(=O)N(C)CC(=O)N[C@@H](CCc2cc(F)c(C(F)(F)F)c(F)c2)C(=O)N2C[C@H](OCC)C[C@H]2C(=O)N(C)C2(CCC2)C(=O)N(C)[C@@H](C2CCCC2)C(=O)N(C)[C@H](C(=O)N(C)C)CC(=O)N1C [PP1793]	0.023	A (a compound having 10 or more and less than 20 is denoted as A)	B (a compound having 3 or more and less than 10 is denoted as B)	2.4
CCO[C@@H]1C[C@H]2C(=O)N(C)C3(CCC3)C(=O)N(C)[C@@H](C3CCCC3)C(=O)N(C)[C@H](C(=O)N(C)C)CC(=O)N(C)[C@@H](CC3CC3)C(=O)N[C@@H]([C@@H](C)CC)C(=O)N3CCC[C@H]3C(=O)N(C)[C@H]3C/C=C\CCN(C3=O)[C@@H](Cc3ccc(C)cc3)C(=O)N(C)CC(=O)N[C@@H](CCc3cc(F)c(C(F)(F)F)c(F)c3)C(=O)N2C1 [PP1797]	0.1	A (a compound having 10 or more and less than 20 is denoted as A)	A (a compound having 10 or more and less than 20 is denoted as A)	5.1
CC[C@H](C)[C@@H]1NC(=O)[C@H](CC2CC2)N(C)C(=O)C[C@@H](C(=O)N(C)C)N(C)C(=O)[C@H](C2CCCC2)N(C)C(=O)C2(CCC2)N(C)C(=O)[C@@H]2CCCN2C(=O)[C@H](CCc2cc(F)c(C(F)(F)F)c(F)c2)NC(=O)CN(C)C(=O)[C@H](Cc2ccc(C)cc2)N2CC/C=C\C[C@@H](C2=O)N(C)C(=O)[C@@H]2CCCN2C1=O [PP1798]	0.15	A (a compound having 10 or more and less than 20 is denoted as A)	B (a compound having 3 or more and less than 10 is denoted as B)	7.8
CCC[C@H]1C(=O)N[C@@H]([C@@H](C)CC)C(=O)N(C)CC(=O)N(C)[C@H]2C/C=C\CCN(C2=O)[C@@H](Cc2ccc(C)cc2)C(=O)N(C)CC(=O)N[C@@H](CCc2cc(F)c(C(F)(F)F)c(F)c2)C(=O)N2C[C@H](C)C[C@H]2C(=O)N(C)C2(CCC2)C(=O)N(C)[C@@H](C2CCCC2)C(=O)N(C)[C@H](C(=O)N(C)C)CC(=O)N1C [PP1799]	0.068	B (a compound having 3 or more and less than 10 is denoted as B)	B (a compound having 3 or more and less than 10 is denoted as B)	7.6
CC[C@H](C)[C@@H]1NC(=O)[C@H](CC2CCC2)N(C)C(=O)C[C@@H](C(=O)N(C)C)N(C)C(=O)[C@H](C2CCCC2)N(C)C(=O)C2(CCC2)N(C)C(=O)[C@@H]2CCCN2C(=O)[C@H](CCc2cc(F)c(C(F)(F)F)c(F)c2)NC(=O)CN(C)C(=O)[C@H](Cc2ccc(C)cc2)N2CC/C=C\C[C@@H](C2=O)N(C)C(=O)CN(C)C1=O [PP1802]	0.082	A (a compound having 10 or more and less than 20 is denoted as A)	B (a compound having 3 or more and less than 10 is denoted as B)	5.8
CCO[C@@H]1C[C@H]2C(=O)N(C)C3(CCCC3)C(=O)N(C)[C@@H](C3CCCC3)C(=O)N(C)[C@H](C(=O)N(C)C)CC(=O)N(C)[C@@H](CC)C(=O)N[C@@H]([C@@H](C)CC)C(=O)N(C)CC(=O)N(C)[C@H]3C/C=C\CCN(C3=O)[C@@H](Cc3ccc(C(F)(F)F)cc3)C(=O)N(C)CC(=O)N[C@@H](CCc3cc(F)c(C(F)(F)F)c(F)c3)C(=O)N2C1 [PP1804]	0.056	A (a compound having 10 or more and less than 20 is denoted as A)	A (a compound having 10 or more and less than 20 is denoted as A)	3.5
CC[C@H](C)[C@@H]1NC(=O)[C@H](CC)N(C)C(=O)C[C@@H](C(=O)N(C)C)N(C)C(=O)[C@H](C2CCCC2)N(C)C(=O)C2(CCCC2)N(C)C(=O)[C@@H]2CCCN2C(=O)[C@H](CCc2cc(F)c(C(F)(F)F)c(F)c2)NC(=O)CN(C)C(=O)[C@H](Cc2ccc(C(F)(F)F)cc2)N2CC/C=C\C[C@@H](C2=O)N(C)C(=O)CN(C)C1=O [PP1805]	0.071	A (a compound having 10 or more and less than 20 is denoted as A)	A (a compound having 10 or more and less than 20 is denoted as A)	7
CCO[C@@H]1C[C@H]2C(=O)N(C)C3(CCCC3)C(=O)N(C)[C@@H](C3CCCC3)C(=O)N(C)[C@H](C(=O)N(C)C)CC(=O)N(C)[C@@H](CC)C(=O)N[C@@H]([C@@H](C)CC)C(=O)N(C)CC(=O)N(C)[C@H]3C/C=C\CCN(C3=O)[C@@H](Cc3ccc(C)cc3)C(=O)N(C)CC(=O)N[C@@H](CCc3cc(F)c(C(F)(F)F)c(F)c3)C(=O)N2C1 [PP1806]	0.06	A (a compound having 10 or more and less than 20 is denoted as A)	B (a compound having 3 or more and less than 10 is denoted as B)	4
